Experimental data reported in patent US20240041866A1, “PHARMACEUTICAL COMPOSITION” (FUJIFILM TOYAMA CHEMICAL CO., LTD., priority 2020, published 2024).

Key:
[1] = cited from earlier work
[2] = Test Example 2: Appearance (degree of coloring) of aqueous solution left at 70° C.; format: physicochemical; details: stabilizing component added to aqueous solution of Compound A
Protocol: To examine the stabilizing effect of a stabilizing component, the degree of coloring was determined. […] Subsequently, the color tone of each filtrate was observed visually.

| SMILES | Results in view of appearance [2] | Water solubility [1] |
| --- | --- | --- |
| NC(=O)c1nc(F)c[nH]c1=O [Compound A, 6-fluoro-3-hydroxy-2-pyrazinecarboxamide] | – | low water solubility |
| O=C(O)CN(CCN(CC(=O)O)CC(=O)O)CC(=O)O [EDTA, ethylenediamine tetraacetic acid] | particularly favorable | – |
| O=C(O)CN(CCO)CCO [bicine, N,N-bis(2-hydroxyethyl)glycine] | particularly favorable | – |

Continued, in another order:

| Results in view of appearance [2] | SMILES | Water solubility [1] |
| --- | --- | --- |
| particularly favorable | O=C(O)CNC(CO)(CO)CO [tricine, N-[tris(hydroxymethyl)methyl]glycine] | – |
| particularly favorable | NC(CO)(CO)CO [trometamol] | – |
